Usually pKi stands for −log10 of the Ki, conventionally taken in molar units.

The target of assay [1] is T1, Lanosterol synthase (Homo sapiens) (UniProt P48449).
T1 sequence (whole entry): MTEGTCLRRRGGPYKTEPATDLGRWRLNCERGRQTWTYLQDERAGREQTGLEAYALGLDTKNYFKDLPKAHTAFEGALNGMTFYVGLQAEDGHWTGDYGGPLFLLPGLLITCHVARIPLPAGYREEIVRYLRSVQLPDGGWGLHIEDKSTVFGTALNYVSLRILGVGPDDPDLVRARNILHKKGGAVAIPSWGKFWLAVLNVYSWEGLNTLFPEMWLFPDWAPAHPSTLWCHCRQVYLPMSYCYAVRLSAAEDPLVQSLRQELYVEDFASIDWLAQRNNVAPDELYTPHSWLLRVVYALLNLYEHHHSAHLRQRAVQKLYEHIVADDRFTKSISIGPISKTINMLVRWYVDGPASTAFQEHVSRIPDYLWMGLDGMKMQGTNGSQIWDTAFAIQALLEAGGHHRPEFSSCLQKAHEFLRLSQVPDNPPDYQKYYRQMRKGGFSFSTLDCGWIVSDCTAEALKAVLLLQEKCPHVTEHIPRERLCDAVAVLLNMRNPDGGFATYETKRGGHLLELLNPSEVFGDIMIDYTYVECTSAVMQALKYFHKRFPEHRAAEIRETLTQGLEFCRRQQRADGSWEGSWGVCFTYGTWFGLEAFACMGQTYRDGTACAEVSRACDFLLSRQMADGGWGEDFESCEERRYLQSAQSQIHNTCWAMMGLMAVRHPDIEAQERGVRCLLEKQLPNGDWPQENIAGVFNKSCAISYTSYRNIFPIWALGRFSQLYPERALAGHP
Description: Inhibitory activity against lanosteral synthase at 0.5 umol/assay. Also noted: scale not given: the % may be the effect or the level left.

The target of assay [2] is T1, Lanosterol synthase (Homo sapiens). As to the kind of experiment: Inhibitory activity against lanosteral synthase at 0.25 umol/assay. Set-up: scale not given: the % may be the effect or the level left.
For assay [3] the target is unchanged. Description: Inhibitory activity against lanosteral synthase at 0.25 umol/assay; n.d. = not detected.
Assay [4] has the same target. As to the kind of experiment: Inhibitory activity against lanosteral synthase at 0.5 umol/assay; n.d. = not detected.
For assay [5] the target is unchanged. As to the kind of experiment: Inhibitory activity against lanosteral synthase at 0.4 umol/assay. Set-up: scale not given: the % may be the effect or the level left.
Another assay has as its target Beta-secretase 1 (Homo sapiens, UniProt P56817). Description: Binding affinity against human brain memapsin 2. Type of assay: tissue-based.

pKi: −log10 of the molar value.

Beta-secretase 1, sequence (P56817 whole entry): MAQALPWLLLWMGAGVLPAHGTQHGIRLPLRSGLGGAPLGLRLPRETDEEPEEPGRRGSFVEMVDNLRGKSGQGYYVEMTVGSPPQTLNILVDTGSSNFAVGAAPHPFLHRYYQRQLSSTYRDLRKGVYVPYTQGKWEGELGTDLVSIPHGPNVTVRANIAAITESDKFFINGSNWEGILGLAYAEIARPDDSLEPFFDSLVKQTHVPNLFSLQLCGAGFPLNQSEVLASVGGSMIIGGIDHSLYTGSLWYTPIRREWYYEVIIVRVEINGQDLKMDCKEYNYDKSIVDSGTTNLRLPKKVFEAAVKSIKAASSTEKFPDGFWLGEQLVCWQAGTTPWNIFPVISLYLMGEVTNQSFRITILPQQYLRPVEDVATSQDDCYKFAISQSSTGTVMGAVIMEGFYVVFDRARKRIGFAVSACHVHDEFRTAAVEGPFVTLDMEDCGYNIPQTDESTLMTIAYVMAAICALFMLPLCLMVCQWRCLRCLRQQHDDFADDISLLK

For the compound `CC/C=C\C/C=C\C/C=C\CCCCCCCC(=O)OCC(CO[C@@H]1OC(CO[C@H]2OC(CO)[C@H](O)[C@@H](O)C2O)[C@H](O)[C@@H](O)C1O)OC(=O)CCCCCCCCCCCCC` (stereo partly specified), the Activity in assay [1] is 38%; in assay [2], 22%.
Turning to `CC/C=C\C/C=C\C/C=C\CCCCCCCC(=O)OCC(CO[C@@H]1O[C@H](CO[C@H]2O[C@H](CO)[C@H](O)C(O)[C@H]2O)[C@H](O)C(O)[C@H]1O)OC(=O)CCCCCCC/C=C\C/C=C\C/C=C\CC` (single isomer, unassigned; 2d), the Activity in assay [1] is 45%; in assay [2], 18%.
As to `CC/C=C\C/C=C\C/C=C\CCCCCCCC(=O)OCC(CO[C@@H]1O[C@H](CO[C@H]2O[C@H](CO)[C@H](O)C(O)[C@H]2O)[C@H](O)C(O)[C@H]1O)OC(=O)CCCCCCC/C=C\C/C=C\C/C=C\CC` (single isomer, unassigned; 2k), the values for the Activity result in assay [3] and in assay [1] were “Not detected” and 26%, respectively.
Regarding `CCCCCC/C=C/CCCCCCCC(=O)OC(COC(=O)CCCCCCC/C=C/CCCCCCCC)CO[C@@H]1O[C@H](COC2O[C@H](CO)[C@H](O)C(O)[C@H]2O)[C@H](O)C(O)[C@H]1O` (single isomer, unassigned), the Activity came to 46% in assay [1] and 24% in assay [2].
Consider `OCC(O)CO[C@@H]1O[C@H](CO[C@H]2O[C@H](CO)[C@H](O)[C@H](O)[C@H]2O)[C@H](O)[C@H](O)[C@H]1O` (stereo partly specified), for which the Activity result in assay [3] and in assay [4] was “Not detected” in each case.
As to `CC/C=C\C/C=C\C/C=C\CCCCCCCC(=O)OCC(CO[C@@H]1O[C@H](CO[C@H]2O[C@H](CO)[C@H](O)C(O)[C@H]2O)[C@H](O)C(O)[C@H]1O)OC(=O)CCCCCCC/C=C\CCCCCC` (single isomer, unassigned; 2j), the Activity in assay [1] was 27%; in assay [2], 3%.
Taken in the same sequence, the figures for `CCCCCC/C=C\CCCCCCCC(=O)OCC(CO[C@@H]1O[C@H](CO[C@H]2O[C@H](CO)[C@H](O)[C@H](O)[C@H]2O)[C@H](O)[C@H](O)[C@H]1O)OC(=O)CCCCCCC/C=C/CCCCCCCC` (stereo partly specified) were 21% and 4%.
`CC/C=C\C/C=C\C/C=C\CCCCCCCC(=O)OCC(CO[C@@H]1O[C@H](CO[C@H]2O[C@H](CO)[C@H](O)C(O)[C@H]2O)[C@H](O)C(O)[C@H]1O)OC(=O)CCCCCCC/C=C\CCCCCC` (single isomer, unassigned; 2l): the Activity in assay [1] came out at 26%; in assay [2], 5%.
Take `CC/C=C\C/C=C\C/C=C\CCCCCCCC(=O)OC(COC(=O)CCCCCCC/C=C/CCCCCCCC)CO[C@@H]1O[C@H](CO[C@H]2O[C@H](CO)[C@H](O)C(O)[C@H]2O)[C@H](O)C(O)[C@H]1O` (single isomer, unassigned; 2f): the Activity in assay [1] turned out to be 40%; in assay [2] it was 9%.
`CC/C=C\C/C=C\C/C=C\CCCCCCCC(=O)OC(COC(=O)CCCCCCC/C=C\CCCCCC)CO[C@@H]1O[C@H](CO[C@H]2O[C@H](CO)[C@H](O)[C@H](O)[C@H]2O)[C@H](O)[C@H](O)[C@H]1O` (stereo partly specified): the Activity entry in assay [3] was “Not detected”; in assay [1], 20%.
Consider `CC/C=C\C/C=C\C/C=C\CCCCCCCC(=O)OC(COC(=O)CCCCCCC/C=C/CCCCCCCC)CO[C@@H]1O[C@H](CO[C@H]2O[C@H](CO)[C@H](O)C(O)[C@H]2O)[C@H](O)C(O)[C@H]1O` (single isomer, unassigned; 2i), for which the Activity came out at 29% in assay [1] and 7% in assay [2].
`CC/C=C\C/C=C\C/C=C\CCCCCCCC(=O)OCC(CO[C@@H]1O[C@H](CO[C@H]2O[C@H](CO)[C@H](O)C(O)[C@H]2O)[C@H](O)C(O)[C@H]1O)OC(=O)CCCCCCC/C=C/CCCCCCCC` (single isomer, unassigned): the figures for the Activity in assay [1] and in assay [2] were 31% and 8%, respectively.
Consider `CCCCCCCCCCCCCC(=O)OCC(CO[C@@H]1O[C@H](CO[C@H]2O[C@H](CO)[C@H](O)C(O)[C@H]2O)[C@H](O)C(O)[C@H]1O)OC(=O)CCCCCCCCCCCCC` (single isomer, unassigned), for which the values for the Activity in assay [1] and in assay [2] were 72% and 51%, respectively.
Compound `CC/C=C\C/C=C\C/C=C\CCCCCCCC(=O)OCC(CO[C@@H]1O[C@H](CO)[C@H](O)C(O)[C@H]1O)OC(=O)CCCCCCC/C=C\CCCCCCCC` (single isomer, unassigned) registered an Activity in assay [5] of 19%.
In the case of `CCCCCC/C=C\CCCCCCCC(=O)OC(COC(=O)CCCCCCCCCCCCC)CO[C@@H]1OC(CO[C@H]2OC(CO)[C@H](O)[C@@H](O)C2O)[C@H](O)[C@@H](O)C1O` (stereo partly specified), the Activity turned out to be 45% in assay [1] and 35% in assay [2].
In assay [5], `CC/C=C\C/C=C\C/C=C\CCCCCCCC(=O)OC(COC(=O)CCCCCCCCCCCCC)CO[C@@H]1OC(CO)[C@H](O)[C@@H](O)C1O` (stereo partly specified) came in with an Activity of 23%.
On to `CCCCCC/C=C\CCCCCCCC(=O)OCC(CO[C@@H]1O[C@H](CO[C@H]2O[C@H](CO)[C@H](O)[C@H](O)[C@H]2O)[C@H](O)[C@H](O)[C@H]1O)OC(=O)CCCCCCC/C=C\CCCCCC` (stereo partly specified), for which the Activity in assay [1] amounted to 24%; in assay [2], 4%.
`CCCCCCCC/C=C/CCCCCCCC(=O)OCC(CO[C@@H]1O[C@H](CO[C@H]2O[C@H](CO)[C@H](O)C(O)[C@H]2O)[C@H](O)C(O)[C@H]1O)OC(=O)CCCCCCC/C=C/CCCCCCCC` (single isomer, unassigned): the results for the Activity in assay [1] and in assay [2] were 57% and 42%, respectively.
For the compound `C=CCNC(=O)C[C@H](NC(=O)C(NC(=O)OCC=C)C(C)C)C(=O)N[C@@H](CC(C)C)[C@@H](O)C[C@@H](C)C(=O)N[C@H](C(=O)NCc1ccccc1)C(C)C` (stereo partly specified), the negative-log Ki (pKi) on Beta-secretase 1 is 7.58.
For the compound `CC/C=C\C/C=C\C/C=C\CCCCCCCC(=O)OC(COC(=O)CCCCCCC/C=C\CCCCCC)CO[C@@H]1O[C@H](CO)[C@H](O)C(O)[C@H]1O` (single isomer, unassigned), the Activity in assay [5] was determined as 16%.

Source of the values: ChEMBL document CHEMBL1145146, “Synthesis of digalactosyl diacylglycerols and their structure-inhibitory activity on human lanosterol synthase” (Bioorg Med Chem Lett, 2005).
